Source: paper PMC7830115, “Design, Synthesis, Molecular Docking, and Tumor Resistance Reversal Activity Evaluation of Matrine Derivative with Thiophene Structure” (Molecules, 2021)

Key:
[1] = tested on: CNE2; assay: MTT cytotoxicity assay, CNE2; format: cell-based; details: mean ± SD
Experimental: (§1) Prior to determining the combined inhibitory effects against NPC CDDP-resistance cells, the cytotoxicity effects of these 8 derivatives were evaluated against three NPC cell lines (CNE2, HONE1, and HK-1) and CDDP resistance cell line (CNE2/CDDP) by using MTT (3-(4,5-dimethyl-2-thiazolyl)-2,5-diphenyl-2-H-tetrazolium bromide) assays. […] Moreover, a liver normal cell LO2 was involved to evaluate the selectivity of these 8 compounds by using MTT assays.
(§2) Nasopharyngeal carcinoma cells (CNE2, HONE1, and CNE2/CDDP) were purchased from Shanghai Aulu Biological Technologh Co., Ltd. (Shanghai, China). HK-1 cell was purchased from Shanghai Shunran Biological Technologh Co., Ltd. CNE2, HONE1, and HK-1 were cultured in DMEM medium supplemented with 10% fetal bovine serum, 1% penicillin-streptomycin. CDDP-resistant NPC cell CNE2/CDDP was cultured in DMEM medium supplemented with CDDP to sustain its drug resistance. Cell viability was detected using the MTT assay. All the 8 derivatives were resolved with DMSO to make a storage solution at 1 M, and CDDP was resolved with phosphate buffer saline (PBS) to make a storage solution at 100 mM. The maximum concentrations of these 8 derivatives and CDDP used in MTT assays were set as 1 mM and 100 µM diluted with DMEM medium, respectively. Medium with 0.1% DMSO was set as control. To begin, an initial MTT assay was conducted to evaluate the cytotoxicity of 3a~3h with a dose range of 50, 100, 200, 400, and 800 µM. Then, a more precise dose range was set to calculate the IC50 of each compound (For 3a~3e: 50, 100, 200, 400, 600, and 800 µM; for 3f~3h: 12.5, 25, 50, 100, 200, and 400 µM). Then, 5000 cells were seeded in a 96-well plate for each well and treated with respective compounds at different concentrations for 72 h following additional treatment with MTT for 2~3 h. Then, MTT was removed and 150 µL DMSO was added into each well and the absorption values were measured at 490 nm using a SpectraMAX M5plate reader (Silicon Valley, CA, USA).

[2] = tested on: HK-1; assay: MTT cytotoxicity assay, HK-1; format: cell-based; details: mean ± SD
Experimental: as §1, §2

[3] = tested on: CNE2/CDDP; assay: MTT cytotoxicity assay, CNE2/CDDP; format: cell-based; details: cisplatin resistant cell line, mean ± SD
Experimental: as §1, §2

[4] = tested on: LO2; assay: MTT cytotoxicity assay, LO2 normal liver cell; format: cell-based; details: mean ± SD
Experimental: as §1, §2

[5] = tested on: HONE1; assay: MTT cytotoxicity assay, HONE1; format: cell-based; details: mean ± SD
Experimental: as §1, §2

[6] = tested on: CNE2/CDDP cells; assay: Apoptosis assay (Annexin V-FITC/PI, FACS); format: cell-based; details: 24 h, mean ± SD; for cell apoptosis, treatment alone: CDDP 4 µg/mL or 3f 40 µM alone, three independent experiments
Experimental: Subsequently, to further verify whether the synergistic effects of compound 3f with CDDP involved cell death, an apoptosis assay was conducted. CNE2/CDDP cells were co-treated with CDDP and compound 3f, or CDDP and 3f alone for 24 h. Then, cells were harvested for staining by using an apoptosis kit, following FACS detection (Figure 3a). Then, the data from three independent experiments were analyzed and the results were shown in the form of histogram (Figure 3b).
CNE2/CDDP cells (3 × 10^5) were seeded into a 6-well plate for each well. Twenty-four hours later, medium was removed and cells were treated with different compounds for […]. Then, cells were harvested, washed with cold PBS, and stained with Annexin V-FITC and PI for 15 min in dark. Finally, samples were analyzed by flow cytometer.
Figure 3 Compound 3f (40 µM) increased apoptosis rate of CDDP (4 µg/mL) in CNE2/CDDP cells. (a), representative apoptosis detection by FACS. (b), three independent experiments of apoptosis assays were analyzed and p-value was calculated. Data are represented as mean ± SD. Bar means SD value * p < 0.05, compared with CDDP; # p < 0.05, compared with 3f.

[7] = tested on: NPC cell lines (CNE2, HONE1, and HK-1) and CDDP resistance cell line (CNE2/CDDP); assay: MTT cytotoxicity, summary over NPC cell lines and CDDP resistance cell line; format: cell-based; details: range over CNE2, HONE1, HK-1 and CNE2/CDDP, read-out: IC50, anti-proliferative effects
Experimental: as §1
(§3) Nasopharyngeal carcinoma cells (CNE2, HONE1, and CNE2/CDDP) were purchased from Shanghai Aulu Biological Technologh Co., Ltd. (Shanghai, China). HK-1 cell was purchased from Shanghai Shunran Biological Technologh Co., Ltd. CNE2, HONE1, and HK-1 were cultured in DMEM medium supplemented with 10% fetal bovine serum, 1% penicillin-streptomycin. CDDP-resistant NPC cell CNE2/CDDP was cultured in DMEM medium supplemented with CDDP to sustain its drug resistance. Cell viability was detected using the MTT assay. All the 8 derivatives were resolved with DMSO to make a storage solution at 1 M, and CDDP was resolved with phosphate buffer saline (PBS) to make a storage solution at 100 mM. […] Then, MTT was removed and 150 µL DMSO was added into each well and the absorption values were measured at 490 nm using a SpectraMAX M5plate reader (Silicon Valley, CA, USA).

[8] = tested on: CNE2/CDDP cells; assay: Combined inhibitory effect with CDDP, MTT; format: cell-based; details: co-treated with CDDP (5 µM) and compound at IC10, MTT
Experimental: Compounds regularly show synergy effects with a relatively low dosage range (IC10 to IC30). In order to preliminarily verify whether 8 compounds could increase cell sensitivity to CDDP, CNE2/CDDP cells were co-treated with CDDP (5 µM) and each compound (IC10), respectively. The cytotoxicity was evaluated by using MTT assays. […] Thus, compound 3f was selected for further experiments.
as §3, with “mM. The maximum concentrations of these 8 derivatives and CDDP used in MTT assays were set as 1 mM and 100 µM diluted with DMEM medium, respectively.” for “mM.”, “USA). […]” for “USA).”

[9] = tested on: CNE2/CDDP cells; assay: Synergistic inhibitory effect with CDDP, combination index (Chou-Talalay); format: cell-based; details: treated simultaneously with 3f (20, 40, 60 µM) and CDDP (5, 10, 15 µM), 72 h; CI < 1 synergism
Experimental: To determine whether compound 3f display synergistic inhibitory effects with CDDP against CNE2/CDDP cells, an MTT assay was performed. Cells were co-treated with compound 3f and CDDP or treated with CDDP or 3f alone. There are 9 groups of the combination between 3f and CDDP (Table 2). Inhibition rates were calculated, and the fraction affected (Fa) and CI (Combination Index) were generated for each group, and dose–effect curves were obtained. The CI greater than, equal to, and less than 1.0 indicate antagonistic, additive and synergistic effects, respectively.
The combination index (CI) was evaluated using Calcusyn 2.0 based on the Chou-Talalay method. Data from cell viability assays were applied to the CI calculation.
Figure 2 Synergistic inhibitory effects of compound 3f with CDDP in CNE2/CDDP cells. CNE2/CDDP cells were cultured with 3f and/or CDDP. After 72 h, 3-(4,5-dimethyl-2-thiazolyl)-2,5-diphenyl-2-H-tetrazolium bromide (MTT) was added. Two hours later, optical density (OD) was detected, and the inhibition rate was quantified. Combination Index (CI) plots were then generated using the Chou-Talay method and Calcusyn software.

[10] = tested on: CNE2/CDDP cells; assay: Subcutaneous tumor-bearing model, CNE2/CDDP; format: in vivo
Experimental: (§4) Finally, to evaluate the combination inhibitory effects of compound 3f with CDDP in vivo, the subcutaneous tumor-bearing model was applied by using strain of BALB/C nude mice. In detail, 32 BALB/C nude mice without tumor were purchased and CNE2/CDDP cells (2 × 10^7) were subcutaneously injected into the right flank of each mouse to make tumor burden. Then, the 32 mice with tumor burden were divided into four groups which receive vehicle, CDDP (5 mg/kg), compound 3f (40 mg/kg), and CDDP with 3f combination treatments (5mg/kg for CDDP and 40 mg/kg for 3f), respectively, through intraperitoneal injection with two times a week for one month. […] The adverse effects of treatment were also tested by detecting serum concentration of Alanine Aminotransferase (ALT), Aspartate aminotransferase (AST), and creatinine (Cr).
The in vivo studies were conducted according to protocols approved by the Animal Ethics Committee of Guangxi University (GXU2018-019). The subcutaneous tumor-bearing model using BALB/C nude mice was applied to assess the in vivo CDDP-resistant reversal activity of compound 3f. In brief, 32 BALB/C nude mice without tumor were purchased and CNE2/CDDP cells (2 × 10^7) were subcutaneously injected into the right flank of each mouse to make tumor burden. Then, the 32 mice with tumor burden were divided into four groups which receive vehicle, CDDP (5 mg/kg), compound 3f (40 mg/kg), and CDDP with 3f combination treatments (5 mg/kg for CDDP and 40 mg/kg for 3f) (n = 8 for each group; twice a week for a month). Drugs were resolved with sterile saline–ethanol–DMSO (89:10:1, v/v/v). Sterile saline–ethanol–DMSO (89:10:1, v/v/v) was used as vehicle. Tumor volume was calculated according to the formula: V = 0.5 × L × W^2 (L: the long diameter of the tumor; W: the short diameter of the tumor). At the time of the animal sacrifice, tumors were excised and weighted.

[11] = Serum ALT, AST and Cr by ELISA; format: in vivo, BALB/C nude mice; details: groups: vehicle, CDDP 5 mg/kg, 3f 40 mg/kg, combination; ELISA at sacrifice
Experimental: as §4
Mice were sacked at the time of the animal sacrifice and blood was collected to detect ALT, AST, and Cr. Immediately, serum was separated by centrifugation at 2000 g, and ALT, Cr, and AST were determined using ELISA kits (Shanghai Enzyme-linked Biotechnology Co., Ltd., catalog: ml063179, ml058577, and ml057581) according to the manufacture instructions. The absorbance of the plates was read at 450 nm using an automated microplate reader (Bio-Tek, Winooski, VT, USA).

[12] = tested on: leukemia, breast, and bladder cancer cells; details: cited from earlier work

Compound	IC50 ([1]; Homo sapiens, CNE-2, 72 h) [µM]	IC50 ([2]; HK-1, 72 h) [µM]	IC50 ([3]; Homo sapiens, CNE-2, 72 h) [µM]	IC50 ([4]; Homo sapiens, L02, 72 h) [µM]	melting point [°C]	IC50 ([5]; Homo sapiens, HONE1, 72 h) [µM]	further results
S=C1/C(=C/c2ccsc2)CC[C@@H]2[C@H]3CCCN4CCC[C@@H](CN12)[C@@H]34 [3c, 14-(thiophen-3-ylmethylene)thiomatrine]	144 ± 10.3	191 ± 11.3	676 ± 23.8	285 ± 20.7	166.8 to 167.5		
S=C1/C(=C/c2cccs2)CC[C@@H]2[C@H]3CCCN4CCC[C@@H](CN12)[C@@H]34 [3b]	158 ± 11.3	208 ± 9.4	583 ± 15.3	156 ± 11.7		125 ± 6.3	
Cc1ccsc1/C=C1\CC[C@@H]2[C@H]3CCCN4CCC[C@@H](CN2C1=S)[C@@H]34 [3e, 14-((3-methylthiophen-2-yl)methylene)thiomatrine]	148 ± 5.6	180 ± 7.3	452 ± 26.8	243 ± 12.7	193.6 to 195	185 ± 12.4	
S=C1/C(=C/c2cc(Br)cs2)CC[C@@H]2[C@H]3CCCN4CCC[C@@H](CN12)[C@@H]34 [3g, 14-((4-bromothiophen-2-yl)methylene)thiomatrine]	58.3 ± 2.9	90.7 ± 6.6	206 ± 11.7	68 ± 5.1	245.7 to 246.3	71.5 ± 4.2	
[NH2][Pt]([NH2])([Cl])[Cl] [CDDP, Cisplatin, reference compound]							IC50 ([1]; 72 h): 3.77 ± 0.26 µM; IC50 ([5]; 72 h): 5.23 ± 0.37 µM; IC50 ([2]; 72 h): 6.73 ± 0.42 µM; IC50 ([3]; 72 h): 29.5 ± 3.12 µM; IC50 ([4]; 72 h): 6.33 ± 0.56 µM; cell apoptosis, treatment alone [6]: 7.58 ± 0.82
S=C1/C(=C/c2csc3ccccc23)CC[C@@H]2[C@H]3CCCN4CCC[C@@H](CN12)[C@@H]34 [3a]	113 ± 7.2	179 ± 12.1	375 ± 18.1	212 ± 15.3		152 ± 8.4	
S=C1C(=Cc2ccc(Cl)s2)CCC2C3CCCN4CCCC(CN12)C34 (centres unmarked) [3f, 14-((5-chlorothiophen-2-yl)methylene)thiomatrine]	35.7 ± 3.4	51.3 ± 3.5	91.4 ± 8.8	72 ± 5.8			IC50 [7]: 30 to 100 µM; increase of the inhibitory effects of CDDP [8]: could increase the inhibitory effects of CDDP; CI (Combination Index) [9]: less than 1; cell apoptosis, treatment alone [6]: 9.97 ± 1.36; cell apoptosis, combined treatment with CDDP ([6]; CDDP (4 µg/mL) and 3f (40 µM) combined): 15.53 ± 1.61; tumor volume and weight, combined treatment with CDDP ([10]; CDDP 5 mg/kg + 3f 40 mg/kg, intraperitoneal, twice a week for one month, compared with CDDP or 3f alone): significantly reduced tumor volume and weight; toxicity in vivo ([10]; dose of 40 mg/kg, reflected by mouse body weight and ALT, AST, Cr): no obvious toxicity; body weight of mice ([10]; groups: vehicle, CDDP 5 mg/kg, 3f 40 mg/kg, combination, i.p. twice a week for one month): no significant difference in body weight; serum concentrations of ALT, AST, and Cr [11]: no significant changes
S=C1/C(=C/c2ccc(Br)s2)CC[C@@H]2[C@H]3CCCN4CCC[C@@H](CN12)[C@@H]34 [3h, 14-((5-bromothiophen-2-yl)methylene)thiomatrine]	76.2 ± 4.5	103 ± 7.8	178 ± 15.8	92 ± 8.6	239.9 to 240.6	89.7 ± 6.2	
O=C1CCC[C@@H]2[C@H]3CCCN4CCC[C@@H](CN12)[C@@H]34 [Matrine]	> 1000	> 1000	> 1000	> 1000		> 1000	IC50 [7]: > 1000 µM; dosage reversing drug resistance in vitro [12]: more than 1 mM
Cc1ccc(/C=C2\CC[C@@H]3[C@H]4CCCN5CCC[C@@H](CN3C2=S)[C@@H]45)s1 [3d, 14-((5-methylthiophen-2-yl)methylene)thiomatrine]	92.4 ± 6.5	138 ± 9.4	294 ± 20.1	138 ± 9.6	186.2 to 187.4	121 ± 7.7	
